Test results reported in ChEMBL document CHEMBL3822441, “Azadirachta indica triterpenoids promote osteoblast differentiation and mineralization in vitro and in vivo” (2016).
The source made the active and inactive calls. The rule behind the calls is not given here.

Tests used:
[1] = tested on: Calvarial osteoblast; assay: Induction of cell proliferation in rat primary calvarial osteoblasts at 10 nM nM after 48 hrs by BrDU-staining based assay relative to control; type: functional
[2] = tested on: Calvarial osteoblast; assay: Osteogenic activity in rat primary calvarial osteoblasts at 1 pM after 48 hrs by ALP-based colorimetric assay; type: functional, cell-based
[3] = tested on: Calvarial osteoblast; assay: Osteogenic activity in rat primary calvarial osteoblasts at 100 pM after 48 hrs by ALP-based colorimetric assay; type: functional, cell-based
[4] = Upregulation of ALP mRNA expression in rat primary calvarial osteoblasts at 100 pM by RT-PCR analysis relative to control; type: functional, cell-based; details: Calvarial osteoblast
[5] = Upregulation of ALP mRNA expression in rat primary calvarial osteoblasts at 10 nM […] by RT-PCR analysis relative to control; type: functional, cell-based; details: Calvarial osteoblast
[6] = tested on: Calvarial osteoblast; assay: Induction of mineralization in rat primary calvarial osteoblasts assessed as mineralized nodule formation at 0.001 to 10 nM after 12 days by alizarin red S-staining based assay relative to control; type: functional, cell-based
[7] = Upregulation of OCN mRNA expression in rat primary calvarial osteoblasts at 10 nM by RT-PCR analysis relative to control; type: functional, cell-based; details: Calvarial osteoblast
[8] = Upregulation of RunX-2 mRNA expression in rat primary calvarial osteoblasts at 10 nM by RT-PCR analysis relative to control; type: functional, cell-based; details: Calvarial osteoblast
[9] = tested on: Calvarial osteoblast; assay: Induction of cell proliferation in rat primary calvarial osteoblasts at 0.1 to 10 nM after 48 hrs by BrDU-staining based assay relative to control; type: functional
[10] = tested on: Rattus norvegicus; assay: Induction of bone formation in rat assessed as increase in mineral appositional rate in calvarial osteoblasts at 1 mg/kg/day, sc dosed for 3 days by dynamic histomorphometric analysis relative to control; type: functional
[11] = tested on: Rattus norvegicus; assay: Induction of bone formation in rat assessed as increase in bone-formation rate in calvarial osteoblasts at 1 mg/kg/day, sc dosed for 3 days by dynamic histomorphometric analysis relative to control; type: functional
[12] = tested on: Rattus norvegicus; assay: Induction of bone formation in rat assessed as increase in mineral appositional rate in calvarial osteoblasts at 5 mg/kg/day, sc dosed for 3 days by dynamic histomorphometric analysis relative to control; type: functional
[13] = tested on: Rattus norvegicus; assay: Induction of bone formation in rat assessed as increase in bone-formation rate in calvarial osteoblasts at 5 mg/kg/day, sc dosed for 3 days by dynamic histomorphometric analysis relative to control; type: functional
[14] = Upregulation of OCN mRNA expression in rat primary calvarial osteoblasts at 100 pM by RT-PCR analysis relative to control; type: functional, cell-based; details: Calvarial osteoblast
[15] = tested on: Rattus norvegicus; assay: Osteogenic activity in rat assessed as upregulation of RunX-2 mRNA expression in calvarial osteoblasts at 1 mg/kg/day, sc dosed for 3 days by RT-PCR analysis relative to control; type: functional
[16] = Upregulation of RunX-2 mRNA expression in rat primary calvarial osteoblasts at 100 pM by RT-PCR analysis relative to control; type: functional, cell-based; details: Calvarial osteoblast
[17] = tested on: Rattus norvegicus; assay: Osteogenic activity in rat assessed as upregulation of ALP mRNA expression in calvarial osteoblasts at 5 mg/kg/day, sc dosed for 3 days by RT-PCR analysis relative to control; type: functional
[18] = tested on: Rattus norvegicus; assay: Osteogenic activity in rat assessed as upregulation of RunX-2 mRNA expression in calvarial osteoblasts at 5 mg/kg/day, sc dosed for 3 days by RT-PCR analysis relative to control; type: functional
[19] = tested on: Rattus norvegicus; assay: Osteogenic activity in rat assessed as upregulation of RunX-2 mRNA expression in calvarial osteoblasts at 10 mg/kg/day, sc dosed for 3 days by RT-PCR analysis relative to control; type: functional
[20] = tested on: Rattus norvegicus; assay: Induction of bone formation in rat assessed as increase in bone-formation rate in calvarial osteoblasts at 10 mg/kg/day, sc dosed for 3 days by dynamic histomorphometric analysis relative to control; type: functional
[21] = tested on: Rattus norvegicus; assay: Osteogenic activity in rat assessed as upregulation of RunX-2 mRNA expression in calvarial osteoblasts at 0.5 mg/kg/day, sc dosed for 3 days by RT-PCR analysis relative to control; type: functional
[22] = tested on: Rattus norvegicus; assay: Osteogenic activity in rat assessed as upregulation of COL-1 mRNA expression in calvarial osteoblasts at 5 mg/kg/day, sc dosed for 3 days by RT-PCR analysis relative to control; type: functional
[23] = tested on: Rattus norvegicus; assay: Osteogenic activity in rat assessed as upregulation of COL-1 mRNA expression in calvarial osteoblasts at 1 mg/kg/day, sc dosed for 3 days by RT-PCR analysis relative to control; type: functional
[24] = tested on: Calvarial osteoblast; assay: Induction of mineralization in rat primary calvarial osteoblasts assessed as mineralized nodule formation at 10 to 1000 nM after 12 days by alizarin red S-staining based assay relative to control; type: functional, cell-based
[25] = tested on: Calvarial osteoblast; assay: Osteogenic activity in rat primary calvarial osteoblasts at 10 nM after 48 hrs by ALP-based colorimetric assay; type: functional, cell-based

In the case of `C[C@]12CC[C@@H]3c4ccc(O)cc4CC[C@H]3[C@@H]1CC[C@@H]2O`, the Activity [1] is reported as “Active”.

For `C/C=C(\C)C(=O)O[C@H]1C[C@@H](OC(C)=O)[C@@]2(C)CO[C@H]3[C@H]4O[C@@H]5C[C@@H](c6ccoc6)C(C)=C5[C@@]4(C)[C@H](CC(=O)OC)[C@]1(C)[C@@H]32`, the Activity [2] was “Active”.

For `C/C=C(\C)C(=O)O[C@@H]1C[C@H](O)[C@]23CO[C@H](C(=O)OC)[C@H]2[C@](C)([C@]24O[C@@]2(C)[C@H]2C[C@@H]4O[C@@H]4OC=C[C@@]42O)[C@H](O)[C@@H]2OC[C@@]1(C(=O)OC)[C@H]23`, the Activity [3] was “Active”, the fold change (FC) [4] was 2.8 and the fold change (FC) [5] was 2.8. For the same compound, the Activity [6] was “Active”, the fold change (FC) [7] was 2.5 and the fold change (FC) [8] was 2.5. The Activity [9] was “Active”.

In the case of `C/C=C(\C)C(=O)O[C@H]1C[C@@H](OC(C)=O)[C@@]2(C(=O)OC)CO[C@H]3[C@@H](O)[C@@](C)([C@@]45O[C@@]4(C)[C@H]4C[C@@H]5O[C@@H]5OC=C[C@@]54O)[C@H]4[C@]1(CO[C@]4(O)C(=O)OC)[C@@H]32`, the “fold change (FC)” value [10] is reported as 3.4, the Activity [3] is reported as “Active” and the fold change (FC) [4] is reported as 4.5. For the same compound, the “fold change (FC)” value [11] was 4, the “fold change (FC)” value [12] was 4 and the “fold change (FC)” value [13] was 5. For the same compound, the fold change (FC) [14] was 3, the “fold change (FC)” value [15] was 7 and the fold change (FC) [16] was 3.5. The “fold change (FC)” value [17] was 2, the “fold change (FC)” value [18] was 7.5 and the “fold change (FC)” value [19] was 3. The “fold change (FC)” value [20] was 3.2, the “fold change (FC)” value [21] was 5 and the Activity [6] was “Active”. For the same compound, the “fold change (FC)” value [22] was 3.5, the “fold change (FC)” value [23] was 7 and the Activity [9] was “Active”.

In the case of `CC(=O)O[C@@H]1C[C@H]2C(C)(C)C(=O)C=C[C@]2(C)[C@H]2CC[C@]3(C)C(=CC[C@H]3c3ccoc3)[C@@]21C`, the Activity [3] is reported as “Active”, the Activity [4] is reported as “inactive” and the fold change (FC) [14] is reported as 2.3. For the same compound, the fold change (FC) [16] was 2.7, the Activity [24] was “Active” and the Activity [9] was “Active”.

For `CC(=O)O[C@@H]1C[C@H]2C(C)(C)C(=O)C=C[C@]2(C)[C@H]2CC[C@@]3(C)[C@H](c4ccoc4)C(=O)[C@H]4O[C@]43[C@@]21C`, the Activity [25] was “Active”.
